Reference: patent US20120045393A1 (priority 2009, published 2012)
Read-outs that look alike come from different tables or passages of the source. Blank lines part the entries; values can stand above or below the molecule they belong to. Non-standard residues stand in square brackets, D forms with d. Residues, ends and D or L forms follow the SMILES beside them. *: point of attachment. X1 = NC(=O)NNC(=O)[C@@H]1CCCN1C[C@H](Cc1ccc(C(=O)c2ccccc2)cc1)N*; DOTA = O=C(O)CN1CCN(CC(=O)O)CCN(CC(=O)*)CCN(CC(=O)O)CC1; Bpa = N[C@@H](Cc1ccc(C(=O)c2ccccc2)cc1)C(=O)O; d2Nal = N[C@H](Cc1ccc2ccccc2c1)C(=O)O; pGlu = O=C1CC[C@@H](C(=O)O)N1; DO3A10CM = not defined here; Bpa4 = non-natural residue; Ampt4 = not defined here; azaGly = NNC(=O)O; Sar = CNCC(=O)O

Tests used:
liver homogenate = settings: female Tac:NCr:Foxn1^nu/nu mice, 37° C., up to 60 min
[1] = tested on: PC-3 (human prostate cancer) cells; test: Internalization/efflux studies in PC-3 cells; assay type: cell-based; parameters: Cell associated activity at 2 h % Efflux / Cell associated activity at 0 h % Memb / Cell associated activity at 2 h % Memb: concentration or dose not given beside the values
Method: (§1) Internalization/Efflux Studies: The internalization and efflux studies were carried out following the general procedure. Basically, ^177Lu-LHRH II or ^125I-LHRH II ([^125I-Tyr^8]BRU-2477) (75 uL, 3.0 μCi/mL) was added to the EFO-27 or PC-3 cells. The cells were incubated for 40 min at 37° C. The unbound radioactivity was washed off (4×). Following addition of fresh medium, the cells were further incubated for up to 2 h. At various time points (15, 30, 60 & 120 min) the distribution of radioactivity (membrane-bound, internalized, and efflux) was determined
To determine whether prostate cancer cells (PC-3) behave differently from EFO-27 cells, internalization and efflux studies were carried out with ^177Lu-BRU-2813 using both cell lines.

[2] = tested on: LHRH binding sites on human ovarian cancer cells (EFO-27);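 further: Cell-associated radioactivity on confluent EFO-27 monolayers in 96-well plates, measured by microplate scintillation counting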
EFO-27 cells = test: Internalization/efflux studies in EFO-27 cells; assay type: cell-based, human
Method: as §1
The internalization and efflux of several Lu-177 labeled LHRH II analogs in EFO-27 cells have been investigated. Basically, following pre-incubation of cells with ^177Lu-LHRH II samples, the binding buffer containing the ^177Lu was replaced with fresh media without complex. The extent of initial internalization (T=0), the amount of radioactive material that remained internalized and the efflux at 0-120 min were determined. The results are shown in FIGS. 21a-f and 22a-c and in Table 25.

[3] = In vitro metabolic stability in mouse liver homogenate at 37° C.; assay type: in vitro ADME
Method: Livers from 10 female Tac:NCr:Foxn1^nu/nu mice were excised, rinsed with ice cold PBS (no Ca^++ or Mg^++) and weighed. The tissues were minced with scissors in Petri dishes on ice with Tris buffered saline (Pierce BupH™ Tris buffered saline packs, #28376; 25 mM Tris, 150 mM NaCl, pH 7.2). After mincing, the tissues were dounce homogenized, and the total volume adjusted with ice cold Tris buffer (4 mL for every gram of excised tissue). The homogenate was centrifuged at ˜4000×g for 10 min at 4° C. The supernatants were aliquoted into Eppendorf tubes on ice (200 and 100 μl volumes) and stored at −80° C. Kidney homogenates were similarly prepared. […] The mixture was centrifuged at 4° C. for 20 min at 20,000×g to precipitate the protein; 10 μL (˜7.6 μCi) of the supernatant was injected into the HPLC for the analysis. […] Peaks at these retention times were also observed in the in vivo plasma sample (FIG. 1). […] After 0 and 60 min, the sample was removed from the incubator, immediately cooled on ice and 2 μL of 10 mM EDTA and 0.2 mL of ice-cooled MeOH were added, mixing after each addition. The proteins in the sample were separated by centrifugation at 14,000 rpm for 20 min. The supernatant was harvested and, in the samples spiked with the ^177Lu-analog, the radioactivity was measured using a Capintec dose calibrator to determine recovery. The sample was then analyzed by HPLC. […] After 0 and 60 min, the sample was removed from the incubator, immediately cooled on ice and 2 μL of 10 mM EDTA and 0.24 mL of ice-cooled methanol was added, mixing after each addition. The proteins in the sample were separated by centrifugation at 14,000 rpm for 20 min. The supernatant was collected and analyzed by LC/MS as described earlier herein.

[4] = target: LHRH receptor (LHRH binding sites) on EFO-27 human ovarian cancer cells (human); test: competition with [125I-Tyr8]BRU-2477 for binding to EFO-27 cells
[5] = target: LHRH binding sites on EFO-27 human ovarian cancer cells (human); test: competition with [125I-Tyr8]BRU-2477 on EFO-27 cells
[6] = target: T1, LHRH binding sites on EFO-27 human ovarian cancer cells (human); test: as above
T1 chain: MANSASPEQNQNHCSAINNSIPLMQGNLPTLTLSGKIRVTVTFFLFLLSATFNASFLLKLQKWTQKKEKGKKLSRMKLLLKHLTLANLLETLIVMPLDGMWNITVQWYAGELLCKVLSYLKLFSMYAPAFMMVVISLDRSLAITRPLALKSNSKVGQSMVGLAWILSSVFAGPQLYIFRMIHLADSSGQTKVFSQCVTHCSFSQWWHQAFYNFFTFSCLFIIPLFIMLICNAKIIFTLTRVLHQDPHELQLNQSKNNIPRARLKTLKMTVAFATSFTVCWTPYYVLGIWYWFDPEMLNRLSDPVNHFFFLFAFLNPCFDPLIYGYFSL

[7] = target: LHRH receptor (LHRH binding sites) on EFO-27 human ovarian cancer cells (human); test: competition with [125I-Tyr8]BRU-2477, EFO-27 cells
[8] = Table 19: analogs used in the stabilization studies

Molecule: DO3A10CM-Dnal2-Arg-Trp-Ser-His-Darg-Trp-Bpa4-Flp4-azaGly-NH2
fragment found (liver homogenate): lutetium complex of BRU-3064 (DO3A10CM-Dnal2-Arg-Trp-Ser-His-Darg-Trp-Bpa-OH)

Molecule: N=C(N)NCCC[C@H](NC(=O)[C@@H](Cc1ccc2ccccc2c1)NC(=O)CN1CCN(CC(=O)O)CCN(CC(=O)O)CCN(CC(=O)O)CC1)C(=O)N[C@@H](Cc1c[nH]c2ccccc12)C(=O)N[C@@H](CO)C(=O)N[C@@H](Cc1cnc[nH]1)C(=O)N[C@H](CCCNC(=N)N)C(=O)N[C@@H](Cc1c[nH]c2ccccc12)C(=O)N[C@@H](Cc1ccc(C(=O)c2ccccc2)cc1)C(=O)N1CCC[C@H]1C(=O)NNC(N)=O [BRU-2813, DO3A10CM-Dnal2-Arg-Trp-Ser-His-Darg-Trp-Bpa-Pro-azaGly-NH2]
Cell associated activity at 0 h % Efflux ([1]; 0 h): 12.5%
Cell associated activity at 0 h % Intern ([1]; 0 h, internalized): 26.2%
Cell associated activity at 0 h % Memb ([1]; 0 h, membrane bound): 61.9%
Cell associated activity at 2 h % Efflux ([1]; 2 h): 75.7%
Cell associated activity at 2 h % Intern ([1]; 2 h, internalized): 7.5%
Cell associated activity at 2 h % Memb ([1]; 2 h, membrane bound): 16.8%
Bound % ([1]; of added): 19.26%
Bound ([1]; per well): 44.3 fmol
more potency than the comparator analog ([2]; BRU-2813 vs BRU-2666, BRU-2964 vs BRU-2813): 30%
EC50 ([2]; EFO-27 cells, competition with [125I-Tyr8]BRU-2477, 90 min): 330 nM
EC50 [2, 8]: 420 nM
Cell associated activity at 0 h % Efflux (EFO-27 cells; 0 h): 8.8%
Cell associated activity at 0 h % Intern (EFO-27 cells; 0 h, internalized): 24.1%
Cell associated activity at 0 h % Memb (EFO-27 cells; 0 h, membrane bound): 66.8%
Cell associated activity at 2 h % Efflux (EFO-27 cells; 2 h): 75.3%
Cell associated activity at 2 h % Intern (EFO-27 cells; 2 h, internalized): 7.4%
Cell associated activity at 2 h % Memb (EFO-27 cells; 2 h, membrane bound): 17.3%
Bound % (EFO-27 cells; of added): 19.10%
Bound (EFO-27 cells; per well): 40.5 fmol

Molecule: DO3A10CM-Dnal2-Arg-Trp-Ser-His-Darg-Trp-Bpa4-Aze-azaGly-NH2
fragment found (liver homogenate): lutetium complex of BRU-3064 (DO3A10CM-Dnal2-Arg-Trp-Ser-His-Darg-Trp-Bpa-OH)

Molecule: DO3A10CM-Dnal2-Arg-Trp-Ser-His-Darg-Trp-Bpa4-Ampt4-azaGly-NH2
not cleaved (liver homogenate): 98.7 ± 0.1 % remaining after 60 min; no metabolism was observed

Molecule: DO3A10CM-Dnal2-Arg-Trp-Ser-His-Darg-Trp-Bpa4-Pip-azaGly-NH2
fragment found (liver homogenate): Lu-DO3A10CM-Dnal2-Arg-Trp-Ser-His-Darg-Trp-Bpa4-Pip-OH

Molecule: pGlu-His-Trp-Ser-His-Darg-Trp-Tyr-Ampc4-azaGly-NH2
not cleaved (liver homogenate): 100 ± 0 % remaining after 60 min; no metabolism

Molecule: DO3A10CM-Dnal2-Arg-Trp-Ser-His-Darg-Trp-Bpa4-Thz-azaGly-NH2
not cleaved (liver homogenate): 98.5 ± 0.2 % remaining after 60 min; no metabolism was observed

Molecule: pGlu-His-Trp-Ser-His-Darg-Trp-Tyr-Ψ(CH2N)-Pro-azaGly-NH2
not cleaved (liver homogenate): 100 ± 0 % remaining after 60 min; no metabolism

Molecule: N=C(N)NCCC[C@H](NC(=O)[C@@H](Cc1ccc2ccccc2c1)NC(=O)CN1CCN(CC(=O)O)CCN(CC(=O)O)CCN(CC(=O)O)CC1)C(=O)N[C@@H](Cc1c[nH]c2ccccc12)C(=O)N[C@@H](CO)C(=O)N[C@@H](Cc1c[nH]cn1)C(=O)N[C@H](CCCNC(=N)N)C(=O)N[C@@H](Cc1c[nH]c2ccccc12)C(=O)N[C@@H](Cc1ccc(C(=O)c2ccccc2)cc1)C(=O)N1C[C@H](N)C[C@H]1C(=O)NNC(N)=O [BRU-2995]
metabolism in liver homogenate [3]: no metabolism was observed
EC50 [2, 8]: 410 nM

Molecule: N=C(N)NCCC[C@H](NC(=O)[C@@H](Cc1ccc2ccccc2c1)NC(=O)CN1CCN(CC(=O)O)CCN(CC(=O)O)CCN(CC(=O)O)CC1)C(=O)N[C@@H](Cc1c[nH]c2ccccc12)C(=O)N[C@@H](CO)C(=O)N[C@@H](Cc1c[nH]cn1)C(=O)N[C@H](CCCNC(=N)N)C(=O)N[C@@H](Cc1c[nH]c2ccccc12)C(=O)N[C@@H](Cc1ccc(C(=O)c2ccccc2)cc1)CN1CCC[C@H]1C(=O)NNC(N)=O [BRU-3081] ({DOTA}-[d2Nal]RWSH[dR]W-X1)
metabolism in liver homogenate [3]: no metabolism was observed
EC50 [2, 8]: 300 nM

Molecule: DO3A10CM-Dnal2-Arg-Trp-Ser-His-Darg-Trp-Bpa4-Ψ(CH2N)Pro-azaGly-NH2
not cleaved (liver homogenate): 100 ± 0 % remaining after 60 min; no metabolism was observed

B3: BRU-2871 (peptide)
peptide: DO3A10CM-[Sar]KWSH[dR]W[Bpa]P[azaGly]-NH2
modifications: reading uncertain
notes: AA2 Lys
EC50 [6]: 10000 nM

Results, then the molecule that gave them:

EC50 [4]: 840 nM
EC50 [5]: 740 nM
B1: BRU-2477 (peptide)
peptide: [pGlu]HWSH[dR]WYP[azaGly]-NH2

EC50 [4]: 720 nM
B2: BRU-3064 (peptide)
peptide: DO3A10CM-[d2Nal]RWSH[dR]W[Bpa4]-OH
modifications: reading uncertain; also: printed as DO3A10CM-Dnal2-Arg-Trp-Ser-His-Darg-Trp-Bpa4-OH

EC50 [6]: 1220 nM
B4: BRU-2738 (peptide)
peptide: XFWSHXWXPX
modifications: DO3A10CM on N-terminus; AA1 Sar; AA6 Darg; AA8 Bpa4; AA10 azaGly-NH2
notes: AA2 Phe

EC50 [4]: 3130 nM
B5: BRU-3122 (peptide)
peptide: [pGlu]HWSH[dR]WYP[azaGly]-NH2
modifications: also: reduced amide bond Ψ(CH2N) between Tyr8 and Pro9

EC50 [7]: 600 nM
EC50 [4]: 600 nM
EC50 [5]: 600 nM
B6: BRU-2994 (peptide)
peptide: XRWSHXWXXX
modifications: N-terminal DO3A10CM; Dnal2 at 1; Darg at 6; Bpa4 at 8; Flp4 at 9; azaGly-NH2 at 10

EC50 [7]: 160 nM
EC50 [4]: 160 nM
EC50 [5]: 160 nM
fold improved binding against the Pro9 analog (BRU-2813) [5]: 2.5 fold
B7: BRU-3072 (peptide)
peptide: XRWSHXWXXX
modifications: N-terminal DO3A10CM; Dnal2 at 1; Darg at 6; Bpa4 at 8; Thz at 9; azaGly-NH2 at 10

EC50 [7]: 350 nM
EC50 [4]: 350 nM
EC50 [5]: 350 nM
B8: BRU-2996 (peptide)
peptide: XRWSHXWXXX
modifications: N-terminal DO3A10CM; Dnal2 at 1; Darg at 6; Bpa4 at 8; Pip at 9; azaGly-NH2 at 10

EC50 [6]: 1140 nM
B9: BRU-2735 (peptide)
peptide: FHWSHXWXPX
modifications: DO3A10CM on N-terminus; AA6 Darg; AA8 Bpa4; AA10 azaGly-NH2
notes: AA1 Phe

EC50 [4]: 15800 nM
B10: BRU-3046 (peptide)
peptide: XRWSHXW
modifications: as printed: DO3A10CM-Dnal2-Arg-Trp-Ser-His-Darg-Trp-OH

EC50 [6]: 2240 nM
B11: BRU-2814 (peptide)
peptide: DO3A10CM-[Sar]YWSH[dR]W[Bpa]P[azaGly]-NH2
modifications: reading uncertain
notes: AA2 Tyr

EC50 [6]: 1180 nM
B12: BRU-2733 (peptide)
peptide: GHWSHXWXPX
modifications: DO3A10CM on N-terminus; AA6 Darg; AA8 Bpa4; AA10 azaGly-NH2
notes: AA1 Gly

EC50 [7]: 300 nM
EC50 [4]: 300 nM
B13: BRU-3081 (peptide)
peptide: XRWSHXWXPX
modifications: N-terminal DO3A10CM; Dnal2 at 1; Darg at 6; Bpa4-psi(CH2N)-Pro reduced amide isostere at 8-9; azaGly-NH2 at 10

EC50 [7]: 380 nM
EC50 [4]: 380 nM
EC50 [5]: 380 nM
B14: BRU-2993 (peptide)
peptide: XRWSHXWXXX
modifications: N-terminal DO3A10CM; Dnal2 at 1; Darg at 6; Bpa4 at 8; Aze at 9; azaGly-NH2 at 10

EC50 [7]: 410 nM
EC50 [4]: 410 nM
EC50 [5]: 410 nM
B15: BRU-2995 (peptide)
peptide: DO3A10CM-[d2Nal]RWSH[dR]W[Bpa][Ampt4][azaGly]-NH2
modifications: reading uncertain; also: printed as DO3A10CM-Dnal2-Arg-Trp-Ser-His-Darg-Trp-Bpa4-Ampt4-azaGly-NH2
